Experimental data published in patent US9321753B2, “Inhibitors of Flaviviridae viruses” (Gilead Sciences, Inc., priority 2010, dated 2016).
Where two headings read alike, the source gives them in different places.

Tested on: HCV replicon
Test: HCV replicon assay in human hepatoma Huh-7 cell line (luciferase readout)
Type: cell-based
Details: for inhibition at 2 µM: Hepatitis C virus, Huh-7, 72 h, read-out: % inhibition at 2 μM
Description: The anti-HCV activity of the compounds of this invention was tested in a human hepatoma Huh-7 cell line harboring a HCV replicon. The assay comprised the following steps:
Serial dilution was performed in 100% DMSO in a 384-well plate. A solution containing a compound at 225-fold concentration of the starting final serial dilution concentration was prepared in 100% DMSO and 15 uL added to the pre-specified wells in column 3 or 13 of a polypropylene 384-well plate. The rest of the 384-well plate was filled with 10 uL 100% DMSO except for columns 23 and 24, where 10 uL of 500 uM a HCV protease inhibitor (ITMN-191) in 100% DMSO was added. The HCV protease inhibitor was used a control of 100% inhibition of HCV replication. The plate was then placed on a Biomek FX Workstation to start the serial dilution. The serial dilution was performed for ten cycles of 3-fold dilution from column 3 to 12 or from column 13 to 22.
To each well of a black polypropylene 384-well plate, 90 μL of cell media containing 1600 suspended Huh-7 HCV replicon cells was added with a Biotek uFlow Workstation. A volume of 0.4 μL of the compound solution was transferred from the serial dilution plate to the cell culture plate on a Biomek FX Workstation. The DMSO concentration in the final assay condition was 0.44%. The plates were incubated for 3 days at 37° C. with 5% CO2 and 85% humidity.
a) Assessment of cytotoxicity: The media in the 384-well cell culture plate was aspirated with a Biotek EL405 plate-washer. A volume of 50 μL of a solution containing 400 nM Calcein AM in 100% PBS was added to each well of the plate with a Biotek uFlow Workstation. The plate was incubated for 30 minutes at room temperature before the fluorescence signal ([…]) was measured with a Perkin Elmer Envision Plate Reader.
b) Assessment of inhibition of viral replication: The calcein-PBS solution in the 384-well cell culture plate was aspirated with a Biotek EL405 plate-washer. A volume of 20 μL of Dual-Glo luciferase buffer (Promega, Dual-Glo Luciferase Assay Reagent, cat. #E298B) was added to each well of the plate with a Biotek uFlow Workstation. The plate was incubated for 10 minutes at room temperature. A volume of 20 μL of a solution containing 1:100 mixture of Dual-Glo Stop & Glo substrate (Promega, Dual-Glo Luciferase Assay Reagent, cat. #E313B) and Dual-Glo Stop & Glo buffer (Promega, Dual-Glo Luciferase Assay Reagent, cat #E314B) was then added to each well of the plate with a Biotek uFlow Workstation. The plate was incubated at room temperature for 10 minutes before the luminescence signal was measured with a Perkin Elmer Envision Plate Reader.
The percent cytotoxicity was determined by calcein AM conversion to fluorescent product. The average fluorescent signal from the DMSO control wells were defined as 100% nontoxic. The individual fluorescent signal from testing compound treated well was divided by the average signal from DMSO control wells and then multiplied by 100% to get the percent viability. The percent anti-HCV replication activity was determined by the luminescence signal from the testing well compared to DMSO controls wells. The background signal was determined by the average luminescence signal from the HCV protease inhibitor treated wells and was subtracted from the signal from the testing wells as well as the DMSO control wells. Following 3-fold serial dilutions, the EC50 and CC50 values were calculated by fitting % inhibition at each concentration to the following equation: % inhibition=100%/[(EC50/[I])^b+1]
Where b is Hill's coefficient. See, for reference, Hill, A. V., The Possible Effects of the Aggregation of the Molecules of Haemoglobin on its Dissociation Curves, J. Physiol. 40: iv-vii. (1910).
% inhibition values at a specific concentration, for example 2 μM, can also be derived from the formula above.

[1] = 2 μM, Huh-7 HCV replicon cells, 3 days incubation, inhibition of viral replication

Row | Compound | inhibition at 2 µM [1] [%] | further results
1 | CC1=CCC(C(=O)N(c2cc(C#CC(C)(C)C)sc2C(=O)O)[C@H]2CC[C@](O)(CO[C@H]3CCOC3)CC2)[C@H](C)C1 (single isomer, unassigned) [Compound 5A, 5-(3,3-dimethyl-but-1-ynyl)-3-{(4,6R-dimethyl-cyclohex-3-enecarbonyl)-[4-hydroxy-4-(tetrahydro-furan-3-yloxymethyl)-cyclohexyl]-amino}-thiophene-2-carboxylic acid] | 100 | –
2 | CC1=CCC(C(=O)N(c2cc(C#CC(C)(C)C)sc2C(=O)O)[C@H]2CC[C@](O)(CO[C@H]3CCOC3)CC2)[C@H](C)C1 (single isomer, unassigned) [Compound 5B, 5-(3,3-dimethyl-but-1-ynyl)-3-{(4,6R-dimethyl-cyclohex-3-enecarbonyl)-[4-hydroxy-4-(tetrahydro-furan-3-yloxymethyl)-cyclohexyl]-amino}-thiophene-2-carboxylic acid] | – | % inhibition at 2 μM [1]: 99.95%
3 | CC(C)(C)C#Cc1cc(N(C(=O)[C@H]2CC[C@H](C)CC2)C2CCC(O)(COc3cccnc3)CC2)c(C(=O)O)s1 (stereo partly shown) [Compound 1, 5-(3,3-Dimethylbut-1-ynyl)-3-(N-(4-hydroxy-4-((pyridin-3-yloxy)methyl)cyclohexyl)-4-methylcyclohexanecarboxamido)thiophene-2-carboxylic acid] | 99.9 | –
4 | CC(C)(C)C#Cc1cc(N(C(=O)[C@H]2CC[C@H](C)CC2)[C@H]2CC[C@](O)(CO[C@@H]3CCOC3)CC2)c(C(=O)O)s1 [Compound 2, 5-(3,3-Dimethyl-but-1-ynyl)-3-[[4-hydroxy-4-(tetrahydrofuran-3R-yloxymethyl)-cyclohexyl]-(4-methyl-cyclohexanecarbonyl)-amino]-thiophene-2-carboxylic acid] | 100 | –
5 | CC(C)(C)C#Cc1cc(N(C(=O)[C@H]2CC[C@H](C)CC2)[C@H]2CC[C@](O)(CO[C@H]3CCOC3)CC2)c(C(=O)O)s1 [Compound 3, 5-(3,3-Dimethyl-but-1-ynyl)-3-[[4-hydroxy-4-(tetrahydrofuran-3S-yloxymethyl)-cyclohexyl]-(4-methyl-cyclohexanecarbonyl)-amino]-thiophene-2-carboxylic acid] | 100 | –
6 | CC(C)(C)C#Cc1cc(N(C(=O)[C@H]2CC[C@H](C)CC2)[C@H]2CC[C@@](O)(CO[C@H]3CCOC3)CC2)c(C(=O)O)s1 [Compound 4] | 99.6 | –
7 | CC1=CCC(C(=O)N(c2cc(C#CC(C)(C)C)sc2C(=O)O)[C@H]2CC[C@](O)(CO[C@H]3CCOC3)CC2)[C@@H](C)C1 (stereo partly drawn) [Compound 6, 5-(3,3-dimethyl-but-1-ynyl)-3-{(4,6S-dimethyl-cyclohex-3-enecarbonyl)-[4-hydroxy-4-(tetrahydro-furan-3(S)-yloxymethyl)-cyclohexyl]-amino}-thiophene-2-carboxylic acid] | 99.9 | –
8 | CC1=CC[C@@H](C(=O)N(c2cc(C#CC(C)(C)C)sc2C(=O)O)[C@H]2CC[C@](O)(CO[C@@H]3CCOC3)CC2)CC1 [Compound 7] | 100 | –
9 | CC1=CC[C@@H](C(=O)N(c2cc(C#CC(C)(C)C)sc2C(=O)O)[C@H]2CC[C@](O)(CO[C@H]3CCOC3)CC2)CC1 [Compound 8] | 99.9 | –
10 | CC1=CC[C@H](C(=O)N(c2cc(C#CC(C)(C)C)sc2C(=O)O)[C@H]2CC[C@](O)(CO[C@H]3CCOC3)CC2)CC1 [Compound 9] | 100 | –
11 | CC1=CC[C@H](C(=O)N(c2cc(C#CC(C)(C)C)sc2C(=O)O)[C@H]2CC[C@](O)(CO[C@@H]3CCOC3)CC2)CC1 [Compound 10] | 100 | –
12 | CC1=CC[C@H](C(=O)N(c2cc(C#CC(C)(C)C)sc2C(=O)O)[C@H]2CC[C@](O)(CO[C@H]3CCOC3)CC2)[C@@H](C)C1 [Compound 16] | – | inhibition at 2 µM: 100%
13 | COC(=O)c1sc(C#CC(C)(C)C)cc1N(C(=O)[C@H]1CC=C(C)C[C@@H]1C)[C@H]1CC[C@](O)(CO[C@H]2CCOC2)CC1 [Compound 17] | 78.8 | –
14 | CC1=CC[C@H](C(=O)N(c2cc(C#CC(C)(C)C)sc2C(=O)O)[C@H]2CC[C@](O)(CO[C@@H]3CCOC3)CC2)[C@@H](C)C1 [Compound 18] | 100 | –
15 | [2H]C([2H])([2H])C(C#Cc1cc(N(C(=O)[C@H]2CC=C(C)CC2)C2CCC(O)(CO[C@H]3CCOC3)CC2)c(C(=O)O)s1)(C([2H])([2H])[2H])C([2H])([2H])[2H] (stereo partly shown) [Compound 24] | 100 | –
16 | CC1=CC[C@H](C(=O)N(c2cc(C#CC(C)(C)CO)sc2C(=O)O)[C@H]2CC[C@](O)(CO[C@H]3CCOC3)CC2)CC1 [Compound 29, 5-(4-hydroxy-3,3-dimethylbut-1-ynyl)-3-((R)-N-((1R,4S)-4-hydroxy-4-(((S)-tetrahydrofuran-3-yloxy)methyl)cyclohexyl)-4-methylcyclohex-3-enecarboxamido)thiophene-2-carboxylic acid] | 100 | –
